Measurements as given in US20040208864A1, “Methods of improving health-related quality of life in individuals with systemic lupus erythematosus” (priority 2002, published 2004).
Where “and” joins values, the source holds several entries; their conditions need not be identical. Equal values may be shown once. Entries after “also recorded” stand apart in the source; their conditions may differ.

Key:
Type in all cases: in vivo, human
anti-dsDNA antibodies [1] = assay: Anti-dsDNA antibody levels (Farr assay), Phase II/III study; conditions: for Frequency of patients with sustained reductions in anti-dsDNA antibodies compared with placebo: Phase II/III (90-05), sustained = at least 10% below baseline for at least 2/3 of values
Procedure: (§1) Two studies (Phase II/III or 90-05, and Phase III or 90-09) were conducted as described in Examples 1-2 and 12. […] Patients completed the SF-36® assessment at entry, followed by three additional time points in the trial depending on how long they participated. […] The Phase II/III trial enrolled 198 lupus patients with high-affinity antibodies who were treated for up to 18 months.
(§2) Patients selection, duration of treatment, assay type were in these studies are further detailed in Table 5. All laboratory values were determined at a central laboratory. Baseline anti-dsDNA antibody levels were calculated as the mean of the last 2 determinations prior to initial administration of the study drug. Baseline values for all other laboratory measures were determined immediately before administration of the study drug. The upper limit of normal for the anti-dsDNA antibody assay at the central laboratory was 5 IU/ml.
(§3) (Sustained reduction of 10% was based on the percent coefficient of variation of the Farr assay as reported in the assay labeling. At least ⅔ of observations were required to meet this criterion to assure the majority of values were represented for a patient.) All anti-dsDNA antibody values collected were used to determine if a patient met the criterion for sustained reduction. Anti-dsDNA antibody values subsequent to HDCC were considered treatment failures and these values were imputed to have a value equivalent to baseline.

anti-dsDNA antibodies [2] = assay: Anti-dsDNA antibody levels (Farr assay), Phase III study; conditions: for Frequency of patients with sustained reductions in anti-dsDNA antibodies compared with placebo: Phase III (90-09), sustained = at least 10% below baseline for at least 2/3 of values
Procedure: as §1, §2, §3

SLE patients = assay: SF-36 health-related quality of life, Phase II/III (90-05) trial of LJP 394 vs placebo; conditions: for Longitudinal Role Emotional and MCS scores vs placebo: available data only
Procedure: Patients were excluded if they had evidence of a renal flare within three months of screening; were receiving prednisone or prednisone equivalent >20 mg/day, azathioprine >200 mg/day, methotrexate >25 mg/wk and/or cyclophosphamide at any dose within three months of screening; or a serum creatinine level ≧2.5 mg/dL. The study was conducted in the US and Europe according to Good Clinical Practices and all patients provided voluntary informed consent.
A pharmacodynamic assay has been developed to measure the binding affinity of patients' anti-dsDNA antibodies to LJP 394 (Sem D S, et al. (1999) Arch Biochem Biophys 372:62-8; McNeeley Pa., et al. (2001) Lupus 10:526-532). The assay measures the binding of the total serum immunoglobulin G [IgG] fraction to the dsDNA epitope on LJP 394. Binding of IgG to the LJP 394 epitope is measured using surface plasmon resonance and the concentration required to reach half maximal binding is determined. This concentration defines the apparent Kd′ of the binding interaction and reflects the titer-weighted average affinity of the patient's IgG fraction for the LJP 394 epitope. Using this assay, patients were segregated into “high affinity” and “low affinity” subgroups. The segregation value was selected by comparing the affinity measured before exposure to LJP 394 with that following 16 weekly treatments with LJP 394 100 mg or placebo. The high-affinity (HA) population was defined as those patients with antibody binding affinities [Kd′]≦0.8 mg/mL pre-treatment.
In this double-blind, randomized controlled, multicenter trial, intravenously administered LJP 394 was compared with placebo in SLE patients with prior renal involvement. Patients were randomized to receive LJP 394 100 mg as a 2 ml bolus intravenous injection on a weekly basis or placebo for 76 weeks. After initiation of the trial, the protocol was amended to include 8 week off treatment periods alternating with 12 weekly treatments with 50 mg (1 ml bolus injection) LJP 394 or placebo. The first 16 weeks, when patients received 100 mg LJP 394 or placebo weekly, was considered the ‘induction period’, followed by ‘maintenance,’ when patients alternated 8 off and 12 weeks on treatment. The 20-week cycles were to be repeated three times for a total of 60 weeks.
The primary endpoint was the time to a documented renal flare, defined as reproducible increases from baseline in 24-hr proteinuria or serum creatinine >20% or at least 0.3 mg/dL, whichever was greater, accompanied by proteinuria, hematuria and/or red cell casts; or new onset or reproducible increase in hematuria accompanied by either an increase in 24-hr proteinuria or new red cell casts. Secondary outcome measures included the number of renal flares, time to institution of therapy with high dose corticosteroids (HDCC) and/or cyclophosphamide, incidence of treatment with HDCC and/or cyclophosphamide, and number of major SLE flares. HDCC was defined as an increase in oral, intravenous or intramuscular prednisone (or prednisone equivalent) greater than or equal to 15 mg per day from baseline to a dose greater than 20 mg per day for more than two days or any dose exceeding 200 mg in a single day. Topical, intra-articular, intra-lesional, or intra-ocular corticosteroid administration was excluded.
As a secondary objective, the SF-36 was included in the protocol for analysis, on an exploratory basis, to evaluate and interpret changes in health-related quality of life with active treatment compared with placebo. An additional secondary objective was to evaluate changes in health-related quality of life before and after a documented renal flare, with or without prior treatment with HDCC. The SF-36 was administered at baseline and weeks 16, 24, 36, 44, 56, 64, 76, or at early treatment withdrawal. All patients with a baseline and at least one post treatment health-related quality of life assessment were included in the analyses. […]

[3] = High Affinity, no flares, induction phase
[4] = High affinity population, baseline (pre-treatment)
[5] = High affinity population, baseline to Week 16
[6] = ITT population, baseline (pre-treatment)
[7] = ITT population, baseline to Week 16
[8] = ITT, no flares, induction phase
[9] = Phase II/III, before renal flare
[10] = active treatment, pre vs post renal flare
[11] = patients with documented renal flare (n=37), before flare

abetimus sodium (sense GTGTGTGTGTGTGTGTGTGT; antisense CACACACACACACACACACA; sense: DNA, backbone not given here; antisense: DNA, backbone and methylation of C not given here; four deoxynucleotide duplexes bound to triethylene glycol valency platform) [LJP 394, tetravalent conjugate: four (CA)10.(TG)10 double-stranded 20-mer oligonucleotides on a triethylene glycol based valency platform]
# Patients with sustained reduction (anti-dsDNA antibodies [1]; Phase II/III): 54 | # Patients, Other (no sustained reduction) (anti-dsDNA antibodies [1]; Phase II/III): 38 | Frequency of patients with sustained reductions in anti-dsDNA antibodies compared with placebo (anti-dsDNA antibodies [1]): higher frequency; also recorded: more frequent | Frequency of patients with sustained reductions in anti-dsDNA antibodies compared with placebo (anti-dsDNA antibodies [1]; listed as LJP394): Four times as many | Change in anti-dsDNA antibodies from baseline compared with placebo (anti-dsDNA antibodies [1]; Phase II/III, p<0.0001): statistically significant decrease | # Patients with sustained reduction (anti-dsDNA antibodies [2]; Phase III): 80 | # Patients, Other (no sustained reduction) (anti-dsDNA antibodies [2]; Phase III): 65 | Frequency of patients with sustained reductions in anti-dsDNA antibodies compared with placebo (anti-dsDNA antibodies [2]): higher frequency; also recorded: Four times as many; also recorded: Twice as many; also recorded: more frequent | Frequency of patients with sustained reductions in anti-dsDNA antibodies compared with placebo (anti-dsDNA antibodies [2]; listed as LJP394): Twice as many | Change in anti-dsDNA antibodies from baseline compared with placebo (anti-dsDNA antibodies [2]; Phase III, p<0.0001): statistically significant decrease | Difference in Role Emotional change scores between treatment groups (SLE patients; [3]): 13.2 | Difference in Social Functioning change scores between treatment groups (SLE patients; [3]): 5.5 | SF-36 MCS Baseline Mean (SLE patients; [4]): 48.21 | SF-36 PCS Baseline Mean (SLE patients; [4]): 41.13 | Difference between MCS change scores, active vs placebo (SLE patients; [5]): 2.2 points | Difference in Role Emotional change scores, active vs placebo (SLE patients; [5]): 15.9 points | Difference in Role Physical change scores, active vs placebo (SLE patients; [5]): 8.5 points | Difference in Social Functioning change scores, active vs placebo (SLE patients; [5]): 5.0 | Magnitude of differences between active and placebo on Role Physical (SLE patients; [5]): 4.4 points | Mean change in SF-36 Social Functioning score (SLE patients; [5]): 4.9 points | SF-36 MCS Mean % Change (SLE patients; [5]): 6.10% | SF-36 MCS Mean Change (SLE patients; [5]): 1.49 | SF-36 PCS Mean % Change (SLE patients; [5]): 7.17% | SF-36 PCS Mean Change (SLE patients; [5]): 1.88 | Patients reporting improvements in Role Emotional scores greater than the MCID (SLE patients; ITT population, Week 16): 24.2% | Baseline Role Emotional score (SLE patients; [6]): 69.1 | SF-36 MCS Baseline Mean (SLE patients; [6]): 48.9 and 48.91 | SF-36 PCS Baseline Mean (SLE patients; [6]): 41.0 and 41.03 | Difference in MCS change, active vs placebo (SLE patients; [7]): 2.1 | Difference in Role Emotional change scores, active vs placebo (SLE patients; [7]): 15.8 points | Difference in Role Physical change scores, active vs placebo (SLE patients; [7]): 8.9 points | SF-36 MCS Mean % Change (SLE patients; [7]): 5.53% | SF-36 MCS Mean Change (SLE patients; [7]): 1.29 | SF-36 PCS Mean % Change (SLE patients; [7]): 6.70% | SF-36 PCS Mean Change (SLE patients; [7]): 1.76 | Difference in Social Functioning change scores between treatment groups (SLE patients; ITT, induction phase (16 weeks)): 4.7 | Difference in Role Emotional change scores between treatment groups (SLE patients; ITT, no HDCC, induction phase): 9.7 | Difference in Social Functioning change scores between treatment groups (SLE patients; ITT, no HDCC, induction phase): 5.9 | Difference in Role Emotional change scores between treatment groups (SLE patients; [8]): 12.3 | Difference in Social Functioning change scores between treatment groups (SLE patients; [8]): 5.0 | Mean SF-36 domain scores after renal flare compared with placebo (SLE patients; Phase II/III, after renal flare): remained better than placebo patients; also recorded: higher for LJP394-treated patients in all domains | Mean SF-36 Pain domain score before renal flare (SLE patients; [9]): 60.13 | Mean SF-36 domain scores before renal flare compared with placebo (SLE patients; [9]): better scores than placebo in all domains except pain | Mean SF-36 domain scores before renal flare compared with placebo (SLE patients; Phase II/III, before renal flare, listed as LJP394): higher for LJP394-treated patients in all domains except pain | SF-36 domain score changes pre/post renal flare compared with placebo (SLE patients; Phase II/III, pre vs post renal flare): stabilization or improvement in all but one domain | SF-36 domain score changes pre/post renal flare compared with placebo (SLE patients; Phase II/III, pre vs post renal flare, listed as LJP394): all eight domains were more favorable; also recorded: all 8 domains were more favorable | Change in Bodily Pain domain score before to after documented renal flare (SLE patients; [10]): 12.3 points | Change in Role Emotional domain score before to after documented renal flare (SLE patients; [10]): 2.1 | Change in Social Functioning domain score before to after documented renal flare (SLE patients; [10]): 2.3 | Change in Vitality domain score before to after documented renal flare (SLE patients; [10]): 4.1 | Longitudinal Role Emotional and MCS scores vs placebo (SLE patients; after the 16 week induction phase): marked improvement | Longitudinal Role Emotional and MCS scores vs placebo (SLE patients; by week 36 of treatment): comparable between the two groups | Role Emotional scores difference, LJP 394 versus placebo (SLE patients; patients with data pre- and post-renal flares): 20.2 points | Pre-flare difference between treatment groups in MCS summary score (SLE patients; [11]): 4.1 points | Pre-flare difference between treatment groups in Role Emotional score (SLE patients; [11]): 15.0 points | Pre-flare difference between treatment groups in Vitality score (SLE patients; [11]): 9.5 points | Post-flare difference in Role Emotional scores favoring active treatment (SLE patients; patients with documented renal flare, post-flare): 37.7 points
